The structures appear in SMILES notation.

T1 sequence (Q00987 1-188): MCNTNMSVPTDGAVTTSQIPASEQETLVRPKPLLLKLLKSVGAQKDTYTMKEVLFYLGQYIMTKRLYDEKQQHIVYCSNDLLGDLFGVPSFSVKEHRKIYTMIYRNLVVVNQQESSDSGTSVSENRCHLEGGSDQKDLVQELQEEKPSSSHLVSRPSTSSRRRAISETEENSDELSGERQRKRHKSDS

This experiment has as its target T1, human MDM2 (GST-hMDM2 1-188), interaction with biotinylated-p53 (1-83) (Homo sapiens, UniProt Q00987).
T1 construct: Amino acid residues 1-188 of human MDM2 were expressed; made in house; host or cells: Escherichia coli
In words: improved HTRF assay (HTRF2 assay), inhibition of HDM2-p53 interaction. The format is binding. Conditions: 0.2 nM GST-hMDM2, 0.5 nM biotinylated-p53, 100 mM KF. The essentials: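 GST-hMDM2 preincubated 20 min at RT with serially diluted compound, then biotinylated p53 (1-83, E. coli) added for 60 min. Detection with SA-XLent, anti-GST cryptate and KF, equilibrated >4 h; final DMSO 2%. TR-FRET read; % inhibition calculated relative to nutlin-3.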
A general note: In TR-FRET formats the signal depends on donor and acceptor labels being close together.
Regarding `O=C1[C@@H](Cc2ncn[nH]2)O[C@H](c2cccc(Cl)c2)[C@@H](c2ccc(Cl)cc2)N1[C@H](CN(c1ccccc1F)S(=O)(=O)C1CC1)C1CC1` (single isomer, unassigned) [Example 396, N-((S)-2-((2R,5R,6R)-2-((1H-1,2,4-Triazol-5-yl)methyl)-6-(3-chlorophenyl)-5-(4-chlorophenyl)-3-oxomorpholino)-2-cyclopropylethyl)-N-(2-fluorophenyl)cyclopropanesulfonamide or N-((S)-2-((2S,5R,6R)-2-((1H-1,2,4-triazol-5-yl)methyl)-6-(3-chlorophenyl)-5-(4-chlorophenyl)-3-oxomorpholino)-2-cyclopropylethyl)-N-(2-fluorophenyl)cyclopropanesulfonamide], the IC50 turned out to be 2 nM. With `O=C1[C@@H](Cc2ncn[nH]2)O[C@H](c2cccc(Cl)c2)[C@@H](c2ccc(Cl)cc2)N1[C@H](CN(c1ccccc1F)S(=O)(=O)C1CC1)C1CC1` (single isomer, unassigned) [Example 397, N-((S)-2-((2R,5R,6R)-2-((1H-1,2,4-Triazol-5-yl)methyl)-6-(3-chlorophenyl)-5-(4-chlorophenyl)-3-oxomorpholino)-2-cyclopropylethyl)-N-(2-fluorophenyl)cyclopropanesulfonamide or N-((S)-2-((2S,5R,6R)-2-((1H-1,2,4-triazol-5-yl)methyl)-6-(3-chlorophenyl)-5-(4-chlorophenyl)-3-oxomorpholino)-2-cyclopropylethyl)-N-(2-fluorophenyl)cyclopropanesulfonamide] the figure was 1 nM; with `O=C1[C@@H](Cc2nnn[nH]2)O[C@H](c2cccc(Cl)c2)[C@@H](c2ccc(Cl)cc2)N1[C@H](CN(c1ccccc1F)S(=O)(=O)C1CC1)C1CC1` (single isomer, unassigned) [Example 398, N-((S)-2-((2R,5R,6R)-2-((1H-Tetrazol-5-yl)methyl)-6-(3-chlorophenyl)-5-(4-chlorophenyl)-3-oxomorpholino)-2-cyclopropylethyl)-N-(2-fluorophenyl)cyclopropanesulfonamide or N-((S)-2-((2S,5R,6R)-2-((1H-tetrazol-5-yl)methyl)-6-(3-chlorophenyl)-5-(4-chlorophenyl)-3-oxomorpholino)-2-cyclopropylethyl)-N-(2-fluorophenyl)cyclopropanesulfonamide], below 1 nM; with `O=C1[C@@H](Cc2nnn[nH]2)O[C@H](c2cccc(Cl)c2)[C@@H](c2ccc(Cl)cc2)N1[C@H](CN(c1ccccc1F)S(=O)(=O)C1CC1)C1CC1` (single isomer, unassigned) [Example 399, N-((S)-2-((2R,5R,6R)-2-((1H-Tetrazol-5-yl)methyl)-6-(3-chlorophenyl)-5-(4-chlorophenyl)-3-oxomorpholino)-2-cyclopropylethyl)-N-(2-fluorophenyl)cyclopropanesulfonamide or N-((S)-2-((2S,5R,6R)-2-((1H-tetrazol-5-yl)methyl)-6-(3-chlorophenyl)-5-(4-chlorophenyl)-3-oxomorpholino)-2-cyclopropylethyl)-N-(2-fluorophenyl)cyclopropanesulfonamide], below 1 nM. In the case of `CC[C@@H](CS(=O)(=O)C(C)(C)C)N1C(=O)[C@@H](Cc2nnnn2C)O[C@H](c2cccc(Cl)c2)[C@H]1c1ccc(Cl)cc1` (single isomer, unassigned) [Example 400, (2R,5R,6R)-4-((S)-1-(tert-Butylsulfonyl)butan-2-yl)-6-(3-chlorophenyl)-5-(4-chlorophenyl)-2-((1-methyl-1H-tetrazol-5-yl)methyl)morpholin-3-one or (2R,5R,6R)-4-((S)-1-(tert-butylsulfonyl)butan-2-yl)-6-(3-chlorophenyl)-5-(4-chlorophenyl)-2-((2-methyl-2H-tetrazol-5-yl)methyl)morpholin-3-one] it was 37 nM; in that of `CC[C@@H](CS(=O)(=O)C(C)(C)C)N1C(=O)[C@@H](Cc2nnnn2C)O[C@H](c2cccc(Cl)c2)[C@H]1c1ccc(Cl)cc1` (single isomer, unassigned) [Example 401, (2R,5R,6R)-4-((S)-1-(tert-Butylsulfonyl)butan-2-yl)-6-(3-chlorophenyl)-5-(4-chlorophenyl)-2-((1-methyl-1H-tetrazol-5-yl)methyl)morpholin-3-one or (2R,5R,6R)-4-((S)-1-(tert-butylsulfonyl)butan-2-yl)-6-(3-chlorophenyl)-5-(4-chlorophenyl)-2-((2-methyl-2H-tetrazol-5-yl)methyl)morpholin-3-one], 38 nM.

`Cc1nnc(C[C@H]2O[C@H](c3cccc(Cl)c3)[C@@H](c3ccc(Cl)cc3)N([C@H](CN(c3ccccc3F)S(=O)(=O)C3CC3)C3CC3)C2=O)o1` (single isomer, unassigned) [Example 403, N-((S)-2-((2R,3R,6R)-2-(3-Chlorophenyl)-3-(4-chlorophenyl)-6-((5-methyl-1,3,4-oxadiazol-2-yl)methyl)-5-oxomorpholino)-2-cyclopropylethyl)-N-(2-fluorophenyl)cyclopropanesulfonamide or N-((S)-2-((2S,3R,6R)-2-(3-chlorophenyl)-3-(4-chlorophenyl)-6-((5-methyl-1,3,4-oxadiazol-2-yl)methyl)-5-oxomorpholino)-2-cyclopropylethyl)-N-(2-fluorophenyl)cyclopropanesulfonamide] displayed an IC50 of 2 nM. Consider `Cc1nnc(C[C@H]2O[C@@H](c3cccc(Cl)c3)[C@@H](c3ccc(Cl)cc3)N([C@H](CN(c3ccccc3F)S(=O)(=O)C3CC3)C3CC3)C2=O)o1` (single isomer, unassigned) [Example 404, N-((S)-2-((2S,3R,6R)-2-(3-Chlorophenyl)-3-(4-chlorophenyl)-6-((5-methyl-1,3,4-oxadiazol-2-yl)methyl)-5-oxomorpholino)-2-cyclopropylethyl)-N-(2-fluorophenyl)cyclopropanesulfonamide or N-((S)-2-((2R,3R,6R)-2-(3-chlorophenyl)-3-(4-chlorophenyl)-6-((5-methyl-1,3,4-oxadiazol-2-yl)methyl)-5-oxomorpholino)-2-cyclopropylethyl)-N-(2-fluorophenyl)cyclopropanesulfonamide], for which the midpoint of inhibition, the IC50, lay at 134 nM. In the case of `NS(=O)(=O)C[C@H]1O[C@H](c2cccc(Cl)c2)[C@@H](c2ccc(Cl)cc2)N([C@H](CN(c2ccccc2F)S(=O)(=O)C2CC2)C2CC2)C1=O` (single isomer, unassigned) [Example 409, N-((S)-2-((2R,3R,6S)-2-(3-Chlorophenyl)-3-(4-chlorophenyl)-5-oxo-6-(sulfamoylmethyl)morpholino)-2-cyclopropylethyl)-N-(2-fluorophenyl)cyclopropanesulfonamide or N-((S)-2-((2S,3R,6S)-2-(3-chlorophenyl)-3-(4-chlorophenyl)-5-oxo-6-(sulfamoylmethyl)morpholino)-2-cyclopropylethyl)-N-(2-fluorophenyl)cyclopropanesulfonamide] it was below 1 nM; in that of `NS(=O)(=O)C[C@H]1O[C@H](c2cccc(Cl)c2)[C@@H](c2ccc(Cl)cc2)N([C@H](CN(c2ccccc2F)S(=O)(=O)C2CC2)C2CC2)C1=O` (single isomer, unassigned) [Example 410, N-((S)-2-((2R,3R,6S)-2-(3-Chlorophenyl)-3-(4-chlorophenyl)-5-oxo-6-(sulfamoylmethyl)morpholino)-2-cyclopropylethyl)-N-(2-fluorophenyl)cyclopropanesulfonamide or N-((S)-2-((2S,3R,6S)-2-(3-chlorophenyl)-3-(4-chlorophenyl)-5-oxo-6-(sulfamoylmethyl)morpholino)-2-cyclopropylethyl)-N-(2-fluorophenyl)cyclopropanesulfonamide], below 1 nM.

Compound `CC(C)(C)S(=O)(=O)C[C@H](C1CC1)N1C(=O)[C@@](C)(CC(=O)O)O[C@H](c2cccc(Cl)c2)[C@H]1c1ccc(Cl)c(F)c1` (single isomer, unassigned) [Example 411, 2-((2R,5R,6R)-4-((S)-2-(tert-Butylsulfonyl)-1-cyclopropylethyl)-5-(4-chloro-3-fluorophenyl)-6-(3-chlorophenyl)-2-methyl-3-oxomorpholin-2-yl)acetic acid or 2-((2S,5R,6R)-4-((S)-2-(tert-butylsulfonyl)-1-cyclopropylethyl)-5-(4-chloro-3-fluorophenyl)-6-(3-chlorophenyl)-2-methyl-3-oxomorpholin-2-yl)acetic acid] registered an IC50 below 1 nM. In the case of `CC(C)(C)S(=O)(=O)C[C@H](C1CC1)N1C(=O)[C@@](C)(CC(=O)O)O[C@H](c2cccc(Cl)c2)[C@H]1c1ccc(Cl)c(F)c1` (single isomer, unassigned) [Example 412, 2-((2R,5R,6R)-4-((S)-2-(tert-Butylsulfonyl)-1-cyclopropylethyl)-5-(4-chloro-3-fluorophenyl)-6-(3-chlorophenyl)-2-methyl-3-oxomorpholin-2-yl)acetic acid or 2-((2S,5R,6R)-4-((S)-2-(tert-butylsulfonyl)-1-cyclopropylethyl)-5-(4-chloro-3-fluorophenyl)-6-(3-chlorophenyl)-2-methyl-3-oxomorpholin-2-yl)acetic acid] it was 11 nM; in that of `CC[C@@H]([C@H](C)S(=O)(=O)C(C)C)N1C(=O)[C@@H](CC(=O)O)O[C@H](c2cccc(Cl)c2)[C@H]1c1ccc(Cl)cc1` (single isomer, unassigned) [Example 413], below 1 nM. In the case of `CC[C@@H]([C@H](C)S(=O)(=O)C(C)C)N1C(=O)[C@@H](CC(=O)O)O[C@H](c2cccc(Cl)c2)[C@H]1c1ccc(Cl)cc1` (single isomer, unassigned) [Example 414] it was 1 nM; in that of `CC[C@@H]([C@H](C)S(=O)(=O)C(C)C)N1C(=O)[C@@H](CC(=O)O)O[C@H](c2cccc(Cl)c2)[C@H]1c1ccc(Cl)cc1` (single isomer, unassigned) [Example 415], 1 nM; in that of `CC[C@@H]([C@H](C)S(=O)(=O)C(C)C)N1C(=O)[C@@H](CC(=O)O)O[C@H](c2cccc(Cl)c2)[C@H]1c1ccc(Cl)cc1` (single isomer, unassigned) [Example 416], 4 nM.

A word on the IC50: it is the point on the concentration scale where inhibition reaches its midpoint.

Source of the values: patent US9376425B2, “Heterocyclic compounds as MDM2 inhibitors for the treatment of cancer” (AMGEN INC., priority 2011, dated 2016).
